Results on two molecules are retold here after ChEMBL document CHEMBL1137653, “First report of the emergence of CTX-M-type extended-spectrum beta-lactamases (ESBLs) as the predominant ESBL isolated in a U.S. health care system” (2007).

What all share (assay type): functional
Assay [1] concerns Escherichia coli. The assay is described as follows: Antimicrobial activity against CTX-M ESBL producing isolate of Escherichia coli at 30 ug by double-disk diffusion method. The following applies: read-out: DIZ. In general terms: A growth-free zone around the sample is the usual read-out of agar diffusion tests.
The next assay concerns Klebsiella oxytoca. The assay is described as follows: Antimicrobial activity against CTX-M ESBL producing isolate of Klebsiella oxytoca at 30 ug by double-disk diffusion method. The following applies: read-out: DIZ.
The next assay relates to Klebsiella pneumoniae. As to the kind of experiment: Antimicrobial activity against CTX-M ESBL producing isolate of Klebsiella pneumoniae at 30 ug by double-disk diffusion method. The following applies: read-out: DIZ.
Assay [2] has as its system Escherichia coli. The assay is described as follows: Antimicrobial activity against non-CTX-M ESBL producing isolate of Escherichia coli by double-disk diffusion method.

With `CO/N=C(\C(=O)N[C@@H]1C(=O)N2C(C(=O)O)=C(COC(C)=O)CS[C@H]12)c1csc(N)n1` [CEFOTAXIME], the zone of inhibition at 30 µg/disc with Escherichia coli [1] is 8.8 mm; with Klebsiella oxytoca, 16.8 mm; in the assay with Klebsiella pneumoniae, 10.8 mm. Further, the “diameter of the inhibition zone (DIZ)” value in the assay on Escherichia coli [2] amounted to 21 mm.

On to `CC(C)(O/N=C(\C(=O)N[C@@H]1C(=O)N2C(C(=O)[O-])=C(C[n+]3ccccc3)CS[C@H]12)c1csc(N)n1)C(=O)O` [CEFTAZIDIME], for which the values for the zone of inhibition at 30 µg/disc in the assay on Escherichia coli [1], in the assay on Klebsiella oxytoca and in the assay with Klebsiella pneumoniae were 15.9 mm, 9.2 mm and 9.8 mm, respectively. Also, in the assay on Escherichia coli [2], the “diameter of the inhibition zone (DIZ)” value came to 17.3 mm.
